Measured values: ChEMBL document CHEMBL1201861, “Genomics of Drug Sensitity in Cancer screening data, Wellcome Trust Sanger Institute”

Key:
Format in all cases: functional, cell-based
Calu-1 = test: SANGER: Inhibition of human Calu-1 cell growth in a cell viability assay.
MES-SA = test: cells; settings: Homo sapiens
Description: SANGER: Inhibition of human MES-SA cell growth in a cell viability assay.

COLO 205 = test: cells; settings: Homo sapiens
Description: SANGER: Inhibition of human COLO-205 cell growth in a cell viability assay.

ECC12 = test: cells; settings: Homo sapiens
Description: SANGER: Inhibition of human ECC12 cell growth in a cell viability assay.

MFE-296 = test: SANGER: Inhibition of human MFE-296 cell growth in a cell viability assay.
SNG-M = test: cells; settings: Homo sapiens
Description: SANGER: Inhibition of human SNG-M cell growth in a cell viability assay.

MDA-MB-468 = test: cells; settings: Homo sapiens
Description: SANGER: Inhibition of human MDA-MB-468 cell growth in a cell viability assay.

C-4-II = test: SANGER: Inhibition of human C-4-II cell growth in a cell viability assay.
RL95-2 = test: cells; settings: Homo sapiens
Description: SANGER: Inhibition of human RL95-2 cell growth in a cell viability assay.

SNU-475 = test: cells; settings: Homo sapiens
Description: SANGER: Inhibition of human SNU-475 cell growth in a cell viability assay.

DMS-53 = test: cells; settings: Homo sapiens
Description: SANGER: Inhibition of human DMS-53 cell growth in a cell viability assay.

NCI-H1734 = test: cells; settings: Homo sapiens
Description: SANGER: Inhibition of human NCI-H1734 cell growth in a cell viability assay.

PLC-PRF-5 = test: cells; settings: Homo sapiens
Description: SANGER: Inhibition of human PLC-PRF-5 cell growth in a cell viability assay.

Caov-3 cell line = test: cells; settings: Homo sapiens
Description: SANGER: Inhibition of human Caov-3 cell growth in a cell viability assay.

HCC1143 = test: cells; settings: Homo sapiens
Description: SANGER: Inhibition of human HCC1143 cell growth in a cell viability assay.

NCI-H838 = test: cells; settings: Homo sapiens
Description: SANGER: Inhibition of human NCI-H838 cell growth in a cell viability assay.

IPC-298 = test: SANGER: Inhibition of human IPC-298 cell growth in a cell viability assay.
Caov-4 = test: cells; settings: Homo sapiens
Description: SANGER: Inhibition of human Caov-4 cell growth in a cell viability assay.

RT-4 = test: SANGER: Inhibition of human RT4 cell growth in a cell viability assay.
CCF-STTG1 = test: cells; settings: Homo sapiens
Description: SANGER: Inhibition of human CCF-STTG1 cell growth in a cell viability assay.

NCI-H2227 = test: cells; settings: Homo sapiens
Description: SANGER: Inhibition of human NCI-H2227 cell growth in a cell viability assay.

SK-CO-1 = test: cells; settings: Homo sapiens
Description: SANGER: Inhibition of human SK-CO-1 cell growth in a cell viability assay.

EFE-184 = test: cells; settings: Homo sapiens
Description: SANGER: Inhibition of human EFE-184 cell growth in a cell viability assay.

DV-90 = test: cells; settings: Homo sapiens
Description: SANGER: Inhibition of human DV-90 cell growth in a cell viability assay.

TT = test: cells; settings: Homo sapiens
Description: SANGER: Inhibition of human TT cell growth in a cell viability assay.

EW-7 = test: SANGER: Inhibition of human EW-7 cell growth in a cell viability assay.
NBsusSR = test: cells; settings: Homo sapiens
Description: SANGER: Inhibition of human NBsusSR cell growth in a cell viability assay.

LU-135 = test: cells; settings: Homo sapiens
Description: SANGER: Inhibition of human LU-135 cell growth in a cell viability assay.

SW 1116 = test: cells; settings: Homo sapiens
Description: SANGER: Inhibition of human SW1116 cell growth in a cell viability assay.

TGBC11TKB = test: cells; settings: Homo sapiens
Description: SANGER: Inhibition of human TGBC11TKB cell growth in a cell viability assay.

TI-73 = test: cells; settings: Homo sapiens
Description: SANGER: Inhibition of human TI-73 cell growth in a cell viability assay.

YH-13 = test: cells; settings: Homo sapiens
Description: SANGER: Inhibition of human YH-13 cell growth in a cell viability assay.

SW900 = test: cells; settings: Homo sapiens
Description: SANGER: Inhibition of human SW900 cell growth in a cell viability assay.

H-EMC-SS = test: cells; settings: Homo sapiens
Description: SANGER: Inhibition of human H-EMC-SS cell growth in a cell viability assay.

H9 = test: cells; settings: Homo sapiens
Description: SANGER: Inhibition of human H9 cell growth in a cell viability assay.

KNS-62 = test: cells; settings: Homo sapiens
Description: SANGER: Inhibition of human KNS-62 cell growth in a cell viability assay.

BALL-1 = test: cells; settings: Homo sapiens
Description: SANGER: Inhibition of human BALL-1 cell growth in a cell viability assay.

ZR-75-30 = test: cells; settings: Homo sapiens
Description: SANGER: Inhibition of human ZR-75-30 cell growth in a cell viability assay.

RH-18 = test: cells; settings: Homo sapiens, Rh18
Description: SANGER: Inhibition of human RH-18 cell growth in a cell viability assay.

BT-549 = test: cells; settings: Homo sapiens
Description: SANGER: Inhibition of human BT-549 cell growth in a cell viability assay.

NCI-H2291 = test: cells; settings: Homo sapiens
Description: SANGER: Inhibition of human NCI-H2291 cell growth in a cell viability assay.

NCI-H2029 = test: cells; settings: Homo sapiens
Description: SANGER: Inhibition of human NCI-H2029 cell growth in a cell viability assay.

NCI-H1666 = test: cells; settings: Homo sapiens
Description: SANGER: Inhibition of human NCI-H1666 cell growth in a cell viability assay.

D-566MG = test: cells; settings: Homo sapiens
OC-314 = test: cells; settings: Homo sapiens
Description: SANGER: Inhibition of human OC-314 cell growth in a cell viability assay.

NCI-H1975 = test: cells; settings: Homo sapiens
Description: SANGER: Inhibition of human NCI-H1975 cell growth in a cell viability assay.

NCI-H1048 = test: cells; settings: Homo sapiens
Description: SANGER: Inhibition of human NCI-H1048 cell growth in a cell viability assay.

EPLC-272H = test: cells; settings: Homo sapiens
Description: SANGER: Inhibition of human EPLC-272H cell growth in a cell viability assay.

CHP-134 = test: SANGER: Inhibition of human CHP-134 cell growth in a cell viability assay.

## O=c1[nH]c2ccccc2n1C1CCN(Cc2ccc(-c3nc4cc5[nH]cnc5cc4nc3-c3ccccc3)cc2)CC1
Calu-1
  IC50: > 2.56 µM
MES-SA
  IC50: > 2.56 µM
COLO 205
  IC50: 2 µM
ECC12
  IC50: > 2.56 µM
MFE-296
  IC50: 1.38 µM
SNG-M
  IC50: > 2.56 µM
MDA-MB-468
  IC50: > 2.56 µM
C-4-II
  IC50: > 2.56 µM
RL95-2
  IC50: > 2.56 µM
SNU-475
  IC50: > 2.56 µM
DMS-53
  IC50: > 2.56 µM
NCI-H1734
  IC50: > 2.56 µM
PLC-PRF-5
  IC50: > 2.56 µM
Caov-3 cell line
  IC50: > 2.56 µM
HCC1143
  IC50: > 2.56 µM
NCI-H838
  IC50: > 2.56 µM
IPC-298
  IC50: > 2.56 µM
Caov-4
  IC50: > 2.56 µM
RT-4
  IC50: > 2.56 µM
CCF-STTG1
  IC50: > 2.56 µM
NCI-H2227
  IC50: > 2.56 µM
SK-CO-1
  IC50: > 2.56 µM
EFE-184
  IC50: > 2.56 µM
DV-90
  IC50: > 2.56 µM
TT
  IC50: > 2.56 µM
EW-7
  IC50: > 2.56 µM

## CC[C@]1(O)C[C@@H]2CN(CCc3c([nH]c4ccccc34)[C@@](C(=O)OC)(c3cc4c(cc3OC)N(C)[C@H]3[C@@](O)(C(=O)OC)[C@H](OC(C)=O)[C@]5(CC)C=CCN6CC[C@]43[C@@H]65)C2)C1 [VINBLASTINE]
NBsusSR
  IC50: 0.00323 µM
LU-135
  IC50: 0.0356 µM
SW 1116
  IC50: > 0.1 µM
TGBC11TKB
  IC50: 0.0158 µM
TI-73
  IC50: 0.00321 µM
YH-13
  IC50: 0.0037 µM
SW900
  IC50: 0.0254 µM
H-EMC-SS
  IC50: > 0.1 µM
H9
  IC50: 0.00225 µM
KNS-62
  IC50: 0.0058 µM
BALL-1
  IC50: > 0.1 µM
ZR-75-30
  IC50: > 0.1 µM
RH-18
  IC50: > 0.1 µM
BT-549
  IC50: 0.00798 µM
NCI-H2291
  IC50: > 0.1 µM
NCI-H2029
  IC50: > 0.1 µM
NCI-H1666
  IC50: 0.0201 µM
D-566MG
  IC50: 0.00204 µM
OC-314
  IC50: 0.00222 µM
NCI-H1975
  IC50: 0.0242 µM
NCI-H1048
  IC50: 0.0101 µM
EPLC-272H
  IC50: 0.0108 µM

## CC(=O)c1c(C)c2cnc(Nc3ccc(N4CCNCC4)cn3)nc2n(C2CCCC2)c1=O [PALBOCICLIB]
NBsusSR
  IC50: 0.743 µM
LU-135
  IC50: > 4 µM
CHP-134
  IC50: 1.12 µM
SW 1116
  IC50: > 4 µM
TGBC11TKB
  IC50: > 4 µM
TI-73
  IC50: > 4 µM
YH-13
  IC50: 3.44 µM
H-EMC-SS
  IC50: > 4 µM
H9
  IC50: 0.495 µM
KNS-62
  IC50: > 4 µM
BALL-1
  IC50: > 4 µM
ZR-75-30
  IC50: > 4 µM
RH-18
  IC50: > 4 µM
BT-549
  IC50: > 4 µM
NCI-H2291
  IC50: > 4 µM
NCI-H2029
  IC50: > 4 µM
D-566MG
  IC50: > 4 µM
OC-314
  IC50: > 4 µM
NCI-H1048
  IC50: > 4 µM
EPLC-272H
  IC50: > 4 µM
